Molecular target: T1, P450TEC (Homo sapiens, UniProt Q7Z449)
T1 construct: One of 5 clones contained a putative full length cytochrome, which we have named P450TEC; made in house; host or cells: Sf9 insect cells, recombinant baculovirus (pVL1392 transfer vector); microsomal fraction
T1 sequence (Q7Z449 1-544): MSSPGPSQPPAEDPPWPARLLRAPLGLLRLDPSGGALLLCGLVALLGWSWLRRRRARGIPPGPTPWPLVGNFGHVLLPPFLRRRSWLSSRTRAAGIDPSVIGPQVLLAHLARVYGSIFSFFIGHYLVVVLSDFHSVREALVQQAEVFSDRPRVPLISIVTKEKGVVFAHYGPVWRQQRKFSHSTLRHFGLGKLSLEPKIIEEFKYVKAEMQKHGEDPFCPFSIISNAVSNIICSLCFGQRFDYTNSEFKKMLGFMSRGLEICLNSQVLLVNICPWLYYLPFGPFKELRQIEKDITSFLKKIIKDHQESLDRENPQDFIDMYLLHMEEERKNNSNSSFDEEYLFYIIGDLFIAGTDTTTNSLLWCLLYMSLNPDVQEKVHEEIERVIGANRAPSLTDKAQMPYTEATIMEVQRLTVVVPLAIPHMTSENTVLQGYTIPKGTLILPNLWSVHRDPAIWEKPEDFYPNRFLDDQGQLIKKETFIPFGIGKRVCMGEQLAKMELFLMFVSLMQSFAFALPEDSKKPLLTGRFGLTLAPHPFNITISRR
Assay: Arachidonic acid metabolism by baculovirus-Sf9-expressed P450TEC microsomes (HPLC, LC-MS)
Assay type: biochemical
Experimental: Cultured Sf9 insect cells expressing recombinant P450TEC were harvested 3 days after infection, washed twice with phosphate buffered saline (PBS) and resuspended in lysis buffer (100 mM Tris-HCl, pH 7.4, 1 mM EDTA, 0.5 M sucrose) containing protease inhibitor cocktail (Roche Diagnostics GmbH, Mannheim, Germany, 1 tablet per 10 ml lyses buffer). Cells were disrupted by brief sonication (5-8 bursts of 5 seconds duration) on ice using 550 Sonic Dismembrator (Fisher Scientific, Canada). The resulting cell lysates were successively centrifuged, at 800g, and 10,000g for 10 min each time at 4° C. Microsomal fractions from the 10,000g supernatants were pelleted by centrifugation at ˜1 00,000g for 60 min at 4° C. The pellet was then resuspended in microsomes storage buffer (10 mM Tris-HCl, pH 7.4, 5 mM MgCl2, 1mM EDTA, 150 mM KCI and 10% glycerol) and stored at −70° C. […]
For MS and MS/MS analyses of arachidonic acid metabolites, 5 μM of unlabeled arachidonic acid was incubated for 60 min. […] Similarly, ethyl acetate extracts from microsomal incubations without arachidonic acid was also processed and analyzed by LC-MS. […]

With `CCCCCC=CCC=CCC=CCC=CCCCC(=O)O` [arachidonic acid, 5,8, 11, 14-eicosatetraenoic acid] the “linearity of arachidonic acid metabolite formation with time” value (5 μM [1-14C] arachidonic acid, NADPH-CYP oxidoreductase+b5 and NADPH, 15, 30 and 60 min) was “directly porportional to time of incubation” and the “metabolite formed from arachidonic acid by P450TEC” value (P450TEC microsomes, NADPH, 1 or 20 μM [1-14C] arachidonic acid, 60 min, 37° C.) was “monohydroxylated arachidonic acid”.
